≈ marks a conversion by molar mass, not a printed value.

The conditions of the series: buffer; pH 7.4; 200.0 µM.
For `Cc1cc(C)c(NC(=O)C2CC(=O)N(C(C)C)C2)c(C)c1` (centres undefined), the solubility (kinetic) is more than 43.3 µg/mL. As for `COc1ccc(NC(=S)Nc2ccc(OC(F)F)cc2)cn1`, the kinetic solubility is 35 µg/mL (≈ 108 µM).

`Nc1nc(NCCOCCO)nc(NC2CCCCC2)c1[N+](=O)[O-]`: the solubility (kinetic) is more than 51.1 µg/mL. The molecule `Cc1nnc(SCC(=O)Nc2ccc([N+](=O)[O-])cc2)n1C` returned a kinetic solubility of more than 46.1 µg/mL. On to `CCC1C(C#N)=C(SCC(N)=O)NC2=C1C(=O)CC(C)(C)C2` (centres undefined), for which the solubility (kinetic) is 46.9 µg/mL (≈ 147 µM). As to `COc1ccc(N2CCOCC2)c(NC(=O)c2cccc3ccccc23)c1`, the kinetic solubility was 6 µg/mL (≈ 16.6 µM).

Take `Cn1cc(CCC(=O)NCc2ccc(Cl)cc2)c2ccccc21`: the kinetic solubility is 2.2 µg/mL (≈ 6.73 µM). With `CCOC(=O)Nc1ccc2c(c1)N(C(=O)CN(C)C)c1ccccc1CC2.Cl` the figure was 57.7 µg/mL; with `N#CCC(=O)Nc1ccc(C(=O)OCC(=O)NC(=O)NCc2ccco2)cc1`, 17.4 µg/mL (≈ 45.3 µM); with `O=c1c2c3c(sc2nc(NCCO)n1-c1ccccc1)CCCC3`, 6.8 µg/mL (≈ 19.9 µM).

As for `O=C(CN1c2cccc3cccc(c23)S1(=O)=O)NCCc1ccccc1`, the kinetic solubility worked out at 2 µg/mL (≈ 5.46 µM). `O=C(Nc1cccc(S(=O)(=O)Nc2ccc(SC(F)F)cc2)c1)C1CCC1` showed a solubility (kinetic) of 34.8 µg/mL (≈ 84.4 µM).

Turning to `COc1ccc(OCC(O)CN2CCCC2)cc1` (centres undefined), the kinetic solubility was 30.7 µg/mL (≈ 122 µM). For `O=Cc1ccc(OCc2cn3ccccc3n2)cc1` the value was more than 37.8 µg/mL. Consider `C=CCNC(=O)c1ccc(N(Cc2ccccc2)S(C)(=O)=O)cc1`, for which the kinetic solubility is more than 51.7 µg/mL. For `CCN(CC)CCNC(=O)c1cc(S(C)(=O)=O)ccc1OC.Cl` the value was 52.5 µg/mL; for `COC(=O)Nc1ccc(S(=O)(=O)N2CCCc3cccc(O)c32)cc1`, 2.1 µg/mL (≈ 5.79 µM).

Consider `CN(Cc1ccccc1)C(=O)COC(=O)CN1C(=O)c2ccccc2C1=O`, for which the kinetic solubility was more than 55 µg/mL.

Consider `Cc1[nH]c(=O)[nH]c(=O)c1S(=O)(=O)Nc1ccc(S(N)(=O)=O)cc1`, for which the kinetic solubility worked out at 48.8 µg/mL (≈ 135 µM).

Turning to `O=C(COC(=O)c1ccc(Cl)nc1)NCCc1ccccc1`, the kinetic solubility amounted to 45.5 µg/mL (≈ 143 µM).

The molecule `Cc1ccc(OC(=O)c2cccnc2)cc1` gave a kinetic solubility of 22.5 µg/mL (≈ 106 µM). The molecule `CCOC(=O)c1sc(=NC(=O)CCSc2ccccc2)n(C)c1C` showed a kinetic solubility of less than 0.4 µg/mL.

Regarding `Nc1nccc(/C=C/c2ccc(Cl)cc2)n1`, the kinetic solubility turned out to be 3.2 µg/mL (≈ 13.8 µM).

`Cc1ccc(/C=C/c2ccc3cccc(O)c3n2)s1` registered a solubility (kinetic) of 1.4 µg/mL (≈ 5.24 µM).

`COCCNC(=O)CN1C(=O)NC2(CCOc3ccccc32)C1=O` (centres undefined): the kinetic solubility was found to be 42.9 µg/mL (≈ 129 µM). `O=C1NC(=O)/C(=C/c2cccc3ccccc23)S1` registered a kinetic solubility of more than 38.3 µg/mL. With `C/C(=N\Nc1ccccc1C(=O)O)c1ccncc1` the figure was more than 38.3 µg/mL; with `CCOc1ccc(OCCCC(=O)N2CCN(S(=O)(=O)c3ccccc3C#N)CC2)cc1`, 27.2 µg/mL (≈ 59.4 µM). `O=C(NCCc1ccccc1)c1ccc2c(c1)OCCCO2`: the kinetic solubility was 39.8 µg/mL (≈ 134 µM). For `CCc1c(SCCC(=O)O)nc2ccccc2c1C` the value was more than 41.3 µg/mL; for `CS(=O)(=O)c1ccc2nc(NC(=O)C3CC3)sc2c1`, 25.3 µg/mL (≈ 85.4 µM); for `O=C(COC(=O)c1ccc(F)cc1)Nc1ccc(Cl)cn1`, 0.8 µg/mL (≈ 2.59 µM). Consider `Cc1oc2c(CN3CCCC(C)C3)c(O)ccc2c(=O)c1-c1ccccc1` (centres undefined), for which the solubility (kinetic) was more than 54.5 µg/mL.

Turning to `O=C(NC1CCN(Cc2ccc(F)cc2)CC1)c1ccccc1`, the solubility (kinetic) came out at 40.7 µg/mL (≈ 130 µM). With `CCOc1ccc(CNCCN2CCCC2)cc1.O=C(O)C(=O)O` the figure was 28.2 µg/mL; with `COc1ccc(C(=O)N2CCCC(Nc3ccc(C)c(C)c3)C2)cc1` (centres undefined), 40.5 µg/mL (≈ 120 µM). Turning to `CC(C)(C)c1ccc(C(=O)NCCNC(=O)c2ccco2)cc1`, the solubility (kinetic) was determined as 39.5 µg/mL (≈ 126 µM). With `COc1ccc(S(=O)(=O)n2cnc3ccccc32)cc1OC` the figure was more than 47.8 µg/mL. `CC(=O)c1ccccc1NCC(=O)Nc1ccc(C)cc1`: the solubility (kinetic) worked out at 11.2 µg/mL (≈ 39.7 µM). Molecule `CC(C)n1cnc2c(oc3ccccc32)c1=O` had a kinetic solubility of 7 µg/mL (≈ 30.7 µM).

`Cc1ccccc1CNCc1ccc2c(c1)OCO2.O=C(O)C(=O)O`: the kinetic solubility is more than 51.8 µg/mL.

`Clc1cccc(C2Nc3cccc4cccc(c34)N2)c1Cl` showed a solubility (kinetic) of 0.5 µg/mL (≈ 1.59 µM). For `Cc1ccc(C)c(S(=O)(=O)N2CCN(C(=O)[C@@H]3CCCN3C(=O)c3cccs3)CC2)c1` the value was 40.4 µg/mL (≈ 87.5 µM).

Molecule `O=c1oc(-c2ccccc2Br)nc2ccccc12` showed a kinetic solubility of 5.2 µg/mL (≈ 17.2 µM). For `O=C(Nc1ccc2c(c1)OCCO2)C1CCCC1` the value was more than 37.1 µg/mL. For `O=C(Nc1cccc(-c2cn3cccnc3n2)c1)Nc1ccccc1F` the value was 1.7 µg/mL (≈ 4.89 µM); for `O=C1NCC(O)=C1C=Nc1ccccc1O`, more than 32.7 µg/mL; for `Cc1ccc(-c2c[n+](Cc3ccc(Cl)cc3)c3n2CCC3)cc1.[Cl-]`, more than 53.9 µg/mL. As to `Cc1c(C(=O)O)sc2[nH]c(=O)n(Cc3ccccc3)c(=O)c12`, the solubility (kinetic) turned out to be 45.7 µg/mL (≈ 144 µM). Regarding `Cc1ccc2cc(/C=N/NC(=O)CN3CCCCC3)c(Cl)nc2c1`, the solubility (kinetic) was more than 51.7 µg/mL. The molecule `CN(C)NC(=O)c1cccc(Cl)c1` came in with a solubility (kinetic) of more than 29.8 µg/mL. With `CCCNS(=O)(=O)c1cc2c3c(c1)C(C)C(=O)N3CCC2` (centres undefined) the figure was 40.3 µg/mL (≈ 131 µM); with `Cc1ccc(NC(=O)c2cnccn2)c(C)c1`, 32.7 µg/mL (≈ 144 µM).

Take `Cl.Clc1ccccc1CSC1=NCCN1`: the kinetic solubility was more than 39.5 µg/mL. With `N#Cc1cccc(NC(=O)Cc2ccsc2)c1` the figure was 33.4 µg/mL (≈ 138 µM). For `Cc1cccnc1NC(N)=S` the value was more than 25.1 µg/mL; for `C=C(C)C(=O)Nc1ccc2c(c1)OCCOCCOCCO2`, 35.2 µg/mL (≈ 115 µM); for `COCCN(CC(=O)Nc1cccc(C)c1C)C(=O)c1oc2ccccc2c1C`, 7.4 µg/mL (≈ 18.8 µM). Take `CCOc1ccc(C(=O)NCC(c2ccco2)N2CCOCC2)cc1` (centres undefined): the kinetic solubility is more than 51.7 µg/mL. For `Cc1ccc(C(=O)CCC(=O)NCc2ccc(Cl)cc2)cc1` the value was 9.7 µg/mL (≈ 30.7 µM); for `Cc1nc(SCC(=O)NC(=O)NC2CCCCC2)nc(C)c1C`, 47.8 µg/mL (≈ 142 µM). For `CC(=O)/C=C/c1ccccc1Oc1c(F)c(F)nc(F)c1F` the value was 17.8 µg/mL (≈ 57.2 µM). Turning to `COc1ccccc1CNC(=O)CCc1cn(C)c2ccccc12`, the kinetic solubility was 39.2 µg/mL (≈ 122 µM). `C=CCC(C(=O)NC(C)c1ccccc1)C(=O)NC(C)c1ccccc1` (centres undefined) came in with a kinetic solubility of 16.5 µg/mL (≈ 47.1 µM). With `CN(C(=O)COC(=O)/C=C/c1cccs1)C1CCCCC1` the figure was 17.7 µg/mL (≈ 57.6 µM); with `Cc1cccc(NC(=O)Nc2ccc(F)cc2)n1`, 1.6 µg/mL (≈ 6.52 µM); with `O=C(Cc1ccccc1)N1CCC(c2ccccc2)C1` (centres undefined), 38.6 µg/mL (≈ 145 µM).

Consider `Cc1ccc(NC(=O)c2ccsc2)cc1NS(C)(=O)=O`, for which the solubility (kinetic) is more than 46.6 µg/mL. With `N#CC1=C(N)Oc2c(c(=O)sc3ccccc23)C1c1ccncc1` (centres undefined) the figure was 3.6 µg/mL (≈ 10.8 µM); with `CC(NC(=O)CN1C(=O)NC2(CCCC2)C1=O)c1ccc(Cl)cc1Cl` (centres undefined), 51.8 µg/mL (≈ 135 µM); with `C[C@@H]1C2CC(C/C2=N\NC(=O)c2ccncc2)C1(C)C` (some centres undefined), more than 40.7 µg/mL.

As to `CCOC(=O)c1c(-c2ccccc2)oc2ccc(OCC(N)=O)cc12`, the solubility (kinetic) was less than 0.7 µg/mL. For `CCc1nc(SCC(=O)NC2CC2)c2c(C)c(C)sc2n1` the value was 2.5 µg/mL (≈ 7.78 µM). Regarding `Cc1ccc(C(C)C)c(OCCN2CCc3ccccc3C2)c1.Cl`, the kinetic solubility was less than 0.7 µg/mL. For `COc1cccc(NC(=O)/C=C/c2ccco2)c1` the value was more than 36.5 µg/mL; for `CC(C)(C)C(=O)N/C(N)=N/c1nc2ccccc2o1`, 8.1 µg/mL (≈ 31.1 µM); for `CCOC(=O)c1sc(NC(=O)CSC(=S)N2CCN(C)CC2)nc1C`, more than 60.4 µg/mL. With `CCOC(=O)N1CCN(C(=O)COc2cccc3c2CCN(CC)C3=O)CC1` the figure was 44.5 µg/mL (≈ 114 µM); with `O=C(Nc1ccc2ccccc2n1)c1ccccc1Cl`, 1.1 µg/mL (≈ 3.89 µM). As to `COc1ccc(NC(=O)C2CC(c3ccccc3O)=NO2)cc1OC` (centres undefined), the kinetic solubility came out at 1.5 µg/mL (≈ 4.38 µM). For `Cc1ccc(-c2nc3ncccc3o2)cc1NC(=O)C(C)(C)C`, the solubility (kinetic) was 44.4 µg/mL (≈ 144 µM). Turning to `[Br-].c1ccc(Cc2cc[n+](Cc3ccccn3)cc2)cc1`, the kinetic solubility is more than 51.2 µg/mL. `O=C1Nc2ccc(Br)cc2C(c2ccccc2)=NC1O` (centres undefined) displayed a kinetic solubility of more than 49.7 µg/mL. As for `C=CCNC1=C(Cl)C(=O)N(Cc2ccccc2)C1=O`, the solubility (kinetic) is 5.8 µg/mL (≈ 21 µM). With `CCOc1ccc(CCNC(=O)Nc2ccccc2C)cc1OCC` the figure was 3.2 µg/mL (≈ 9.34 µM).

With `CCOc1cc(CNCc2ccccn2)cc(Cl)c1OCC.Cl`, the kinetic solubility amounted to 35.5 µg/mL. For `COc1c(Cl)cccc1-c1cn2ccc(C)cc2n1`, the solubility (kinetic) is 1.4 µg/mL (≈ 5.13 µM). For `NC(=O)c1ccsc1NC(=O)COC(=O)c1cccnc1Cl` the value was 4.7 µg/mL (≈ 13.8 µM). Regarding `O=C(COC(=O)/C=C/c1ccc(S(=O)(=O)N2CCOCC2)cc1)Nc1ccc(F)c(F)c1F`, the solubility (kinetic) was determined as 11.6 µg/mL (≈ 23.9 µM). Consider `CC(=O)Nc1ccc(NC(=O)CCCc2ccccc2)cc1`, for which the kinetic solubility stood at 22.9 µg/mL (≈ 77.3 µM).

`O=C(c1cc(-c2cccc(Cl)c2)on1)N1CCOCC1`: the solubility (kinetic) stood at 20.1 µg/mL (≈ 68.7 µM). For `COc1ccc(CCC(C)NCc2ccc(F)cc2)cc1` (centres undefined) the value was 31.8 µg/mL (≈ 111 µM); for `CC(=O)Nc1ccc(SCC(=O)Nc2ccccc2N2CCOCC2)cc1`, 3.9 µg/mL (≈ 10.1 µM); for `CCCCOc1ccc(C(=O)NCCC(=O)NCCCC(=O)OCC)cc1`, more than 56.8 µg/mL. On to `CCc1ccc(OCC(=O)Nc2ccncc2)c(Br)c1`, for which the solubility (kinetic) was 15.5 µg/mL (≈ 46.2 µM).

`Cc1cc(NC(=O)NC(=O)c2ccccc2F)no1` showed a kinetic solubility of 3 µg/mL (≈ 11.4 µM). Molecule `Cc1ccc(NC(=O)CSc2ncccn2)cc1F` showed a solubility (kinetic) of more than 41.6 µg/mL.

As for `COc1ccccc1C(=O)NCCC(=O)NCC(c1ccccc1)N(C)C` (centres undefined), the solubility (kinetic) was more than 55.4 µg/mL. As for `Cc1ccc(CNC(=S)N2CCOCC2)cc1`, the solubility (kinetic) was more than 37.6 µg/mL. For `Cc1ccc(N=C2NC(=O)/C(=C/c3cccn3C)S2)c(C)c1` the value was 1.2 µg/mL (≈ 3.85 µM); for `O=C(COC(=O)/C=C/c1ccc(C(F)(F)F)cc1)NC1CCCC1`, less than 0.7 µg/mL.

`CN(C(=O)c1cccc(C(F)(F)F)c1)C1CCCc2ccccc21` (centres undefined) displayed a solubility (kinetic) of 19.5 µg/mL (≈ 58.5 µM). Turning to `CCOc1ccccc1C(=O)NCC(=O)NCCCSc1ccccc1`, the solubility (kinetic) came out at 2.5 µg/mL (≈ 6.71 µM). With `CNC(=O)c1cc2cc(Br)ccc2s1` the figure was 8.1 µg/mL (≈ 30 µM).

The values are drawn from PubChem BioAssay AID1996.
